From patent US20250213547A1, “METHODS OF TREATING NEUROLOGICAL DISEASES” (priority 2022, published 2025)

Columns and labels:
clinical = settings: human, in vivo; for AUC: AUC24 / mean steady-state area under the curve
Description: Soticlestat was administered in tablet formulation during fasting condition. […] Blood samples were obtained before the first morning dose, and at 1, 3, and 5 hours post-dose. On days 11 and 21, blood samples were taken before the morning dose and 1 hour post-dose. In Part B, patients were administered 200 mg BID for days 31-40, followed by 300 mg BID for days 41-85. On days 31, 41, and 85, blood samples were taken before the morning dose. […] The AUC24 for doses 100, 200, and 300 mg BID were 562.5, 1437, and 2188 ng×h/mL, respectively.
Blood samples were collected before and after the morning dose on days 1, 11, and 21, and before and after the morning dose on days 31, 41, and 85.

[1] = Multiple rising dose study: safety (TEAEs) in healthy subjects over 14 days; type: in vivo, human
Description: Subjects were monitored during the study and a full review was conducted after each rising dose. Safety data monitoring included vitals, physical and visual examinations, electrocardiogram, BMI, and clinical laboratory tests. […] Percentages are rounded to one decimal place. A subject with two or more different adverse events (AE) within the same levels of the MedDRA term and treatment is counted only once at that level using the most related or severe incident. A TEAE is defined as an AE or SAE that occurs or gets worse after receiving the first dose of study drug and within 30 days after the last dose of study drug.

[2] = Text: The datasets from the clinical trials described above were used in a population PK and PK/PD modeling analysis. Three PK samples were excluded from the analyses because their baseline values were over the limit of quantification. The ELEKTRA dataset contained 69 single-dose and 270 steady-state dose events. Individual variables from those studies were included in the dataset to determine significant covariates and their effect size. Subject variables included the study ID, patient ID, treatment, health status, and DEE disease type. Baseline demographic variables included age, body weight, body mass index, gender, race, and Chinese or Asian ethnic origin. Baseline laboratory variables included aspartate aminotransferase (AST), gamma-glutamyl transferase (GGT), alkaline phosphatase (ALP), bilirubin, creatinine, albumin, alpha-1-acid glycoprotein (A1-AGLP), estimated glomerular filtration rate (eGFR), and creatinine clearance (CrCl)) (see formulas in example 12). […] Another variable was the type of antiepileptic drugs patients were on concomitantly during the trial.
The dataset included 2193 observations from 173 subjects. Both PK and PK/PD parameters were analyzed as a mixed-effects population model using the computer program NONMEM. A mixed-effects model takes into account fixed value parameters and random-effect parameters. The first stage of the analysis began with using only data obtained from the oral solution studies in a structural and statistical base model to account for concentration changes over time and for between and within subject variability. Several different structural model types were tested and the structure of the omega complex was optimized. Omega, expressed as random effects variance, represents the difference between an individual's parameter value and the population value and describes the distribution of between subject variability across the population. The linear two-compartment model incorporates delayed first-order absorption from oral administration. Model parameters were absorption lag time (ALAG1), bioavailability (F1), elimination clearance (CL), absorption rate constant (KA), central volume (V2), inter-compartmental clearance (Q), and peripheral volume (V3). Random effects were estimated for F1, KA, Q, and V3. The omega matrix was restricted to a diagonal structure, wherein between parameter correlations are ignored. A combined additive and proportional residue error model was utilized to broadly reflect […].
The second stage of the analysis added data collected from the tablet formulation studies in adults.
The third stage of the analysis added the pediatric data collected from the ELEKTRA study. A range of different formulations and administration procedures were used for the pediatric patients, including swallowed mini-tablets, tablets, and crushed tablets administered through a gastrostomy tube. […] Next variables were screened separately by correlating the individual random effects with the base model. An F-test was used to determine the significance of the individual random effects with and without the variable. Candidates were further screened using a standard forward inclusion (α<0.05), backward deletion (α<0.01) procedure.

[3] = between subject variation as standard deviation

What does the source list for `O=C(c1cccnc1-c1ccncc1)N1CCC(O)(Cc2ccccc2)CC1` [soticlestat]?
clearance (clinical; 100 mg): 4320 mL/min; AUC (clinical; 100 mg): 562 ng·h/mL; Cmax (clinical; 100 mg, Cmax steady state, mean): 270 ng/mL; clearance (clinical; 200 mg): 3260 mL/min; AUC (clinical; 200 mg): 1440 ng·h/mL; Cmax (clinical; 200 mg, Cmax steady state, mean): 640 ng/mL; clearance (clinical; 300 mg): 3170 mL/min; AUC (clinical; 300 mg): 2190 ng·h/mL; Cmax (clinical; 300 mg, Cmax steady state, mean): 975 ng/mL; Cmax (clinical; Study TAK-935-2001, 200 mg BID, Mean, read-out: Cmax, ss): 1270 ng/mL; Deaths, number of subjects (%) ([1]; 100 mg QD, n = 6): 0 subjects (%); Deaths, number of subjects (%) ([1]; 300 mg BID, n = 6): 0 subjects (%); Deaths, number of subjects (%) ([1]; 300 mg QD, n = 6): 0 subjects (%); Deaths, number of subjects (%) ([1]; 400 mg QD, n = 6): 0 subjects (%); Mild TEAEs, number of subjects (%) ([1]; 400 mg QD, n = 6): 4 (66.7) subjects (%); Related TEAEs, number of subjects (%) ([1]; 400 mg QD, n = 6): 4 (66.7) subjects (%); Deaths, number of subjects (%) ([1]; 600 mg QD, n = 6): 0 subjects (%); Mild TEAEs, number of subjects ([1]; both, human, in vivo, 14 days): 12 subjects; Moderate TEAEs, number of subjects ([1]; both, human, in vivo, 14 days): 1 subjects; TEAEs mild and transient ([1]; both, human, in vivo, 14 days): 91%; TEAEs, number of subjects ([1]; both, human, in vivo, 14 days): 14 subjects; number of TEAEs reported ([1]; human, in vivo): Forty-five; Not related TEAEs, number of subjects ([1]; human, in vivo, 14 days): 1 subjects; Related TEAEs, number of subjects ([1]; human, in vivo, 14 days): 13 subjects; SAEs, number of subjects ([1]; human, in vivo, 14 days): 0 subjects; Severe TEAEs, number of subjects ([1]; human, in vivo, 14 days): 1 subjects; TEAEs leading to halt, number of subjects ([1]; human, in vivo, 14 days): 2 subjects; Deaths, number of subjects ([1]; soticlestat total, n = 30): 0 subjects; simulated change in AUC with twice the dosage ([2]; FIG. 21, reference ELEKTRA patient 100 mg BID): 130%; F1: BSV [2, 3]: 0.538; KA: BSV [2, 3]: 1.1; Q: BSV [2, 3]: 0.369; V3: BSV [2, 3]: 0.559; ALAG1: Non-OS formulation (%) ([2]; covariate effect on ALAG1): 25.2%; CL: Patient (%) ([2]; covariate effect on CL): −24.4%; F1: A1-AGLP exponent ([2]; covariate effect on F1): 0.739; F1: weight exponent ([2]; covariate effect on F1): −0.516; F1: Dose exponent ([2]; covariate effect on F1, fixed): 0.204; KA: BMI exponent ([2]; covariate effect on KA): 2.52; KA: Strong Inducer (%) ([2]; covariate effect on KA): −73.7%; KA: non-OS formulation (%) ([2]; covariate effect on KA): −45.7%; KA: Dose exponent ([2]; covariate effect on KA, fixed): −0.753; Q: Dose exponent ([2]; covariate effect on Q, fixed): −0.218; V3: Asian (%) ([2]; covariate effect on V3): −39.4%; V3: eGFI exponent ([2]; covariate effect on V3): −0.469; V3: Dose exponent ([2]; covariate effect on V3, fixed): −0.214; ALAG1 typical value ([2]; final population PK model): 0.131 h; F1: BSV explained by A1-AGLP (%) ([2]; final population PK model): 33.6%; KA typical value ([2]; final population PK model): 7.49 h⁻¹; Q typical value ([2]; final population PK model): 1.16 L/h; V2 typical value ([2]; final population PK model): 2.99 L; V3 typical value ([2]; final population PK model): 7.51 L; F1 typical value ([2]; final population PK model, fixed): 0.0216; CL typical value ([2]; human): 4.31 L/h; estimated weight exponent on steady state AUC ([2]; human): 0.516; typical value for CL/F ([2]; human): 150 L/h; typical value for V2/F (central volume distribution) ([2]; population model): 138.43 L
